“Also recorded” adds a separate entry of the source. Oligonucleotides are written 5' to 3', each unit as a sugar letter and its base; * is a phosphorothioate linkage, no mark a phosphodiester; rarer units and linkages stand in square brackets, end groups in braces. Plain capitals give the bases only. d = 2'-deoxy (DNA)
Target: T1, Human TLR7 (Homo sapiens, UniProt Q9NYK1)
T1 construct: expressed in transfected cells; host or cells: HEK293 (ATCC No. CRL-1573)
T1 sequence (Q9NYK1 27-1049): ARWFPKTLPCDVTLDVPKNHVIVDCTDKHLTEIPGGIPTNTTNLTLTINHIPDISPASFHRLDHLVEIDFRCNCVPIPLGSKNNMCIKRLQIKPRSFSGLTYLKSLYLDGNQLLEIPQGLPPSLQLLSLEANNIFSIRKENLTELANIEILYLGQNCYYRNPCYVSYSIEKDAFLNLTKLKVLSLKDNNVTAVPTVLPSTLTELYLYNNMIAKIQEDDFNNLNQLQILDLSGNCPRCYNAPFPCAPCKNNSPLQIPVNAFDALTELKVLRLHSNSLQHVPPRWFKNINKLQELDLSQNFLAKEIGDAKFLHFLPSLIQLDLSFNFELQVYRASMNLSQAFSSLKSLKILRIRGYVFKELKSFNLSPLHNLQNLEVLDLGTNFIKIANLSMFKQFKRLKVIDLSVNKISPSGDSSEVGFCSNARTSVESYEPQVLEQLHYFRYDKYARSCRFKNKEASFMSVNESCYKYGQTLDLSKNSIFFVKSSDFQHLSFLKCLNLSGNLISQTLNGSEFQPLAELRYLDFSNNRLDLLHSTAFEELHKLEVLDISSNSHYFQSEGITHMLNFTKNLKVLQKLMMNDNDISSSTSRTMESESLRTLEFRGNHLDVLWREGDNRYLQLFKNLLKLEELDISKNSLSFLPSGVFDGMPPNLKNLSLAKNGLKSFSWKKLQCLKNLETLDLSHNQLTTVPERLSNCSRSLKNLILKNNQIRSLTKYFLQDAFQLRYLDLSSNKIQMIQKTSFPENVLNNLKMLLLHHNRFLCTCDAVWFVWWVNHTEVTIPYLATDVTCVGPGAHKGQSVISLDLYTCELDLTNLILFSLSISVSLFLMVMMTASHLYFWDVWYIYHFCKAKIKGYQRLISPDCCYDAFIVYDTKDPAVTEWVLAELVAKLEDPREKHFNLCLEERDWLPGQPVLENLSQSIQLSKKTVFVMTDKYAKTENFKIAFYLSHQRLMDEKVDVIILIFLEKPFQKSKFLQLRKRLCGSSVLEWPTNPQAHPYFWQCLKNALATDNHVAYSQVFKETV
Assay: NFκB luciferase induction in HEK293 cells transfected with human TLR7
Assay type: cell-based
Conditions: transfected HEK293 cell line; poly(T), poly(A) or poly(C) oligonucleotide with 3 μM IRM1; overnight
Protocol: Human TLR7 and NFκβ were transfected into human epithelial kidney 293 (HEK293, American Type Culture Collection, Manassas, Va., ATCC No. CRL-1573) cells as described in U.S. Patent Publication Nos. U82004/0014779 and US2004/0171086. The selected transfected cells were counted and resuspended to a concentration of 5×10^5 cell per mL in culture media.
Cultured media was prepared from complete DMEM media (Biosource International Inc., Camarillo, Calif.), without phenol red. Fetal bovine serum (Biosource International Inc.) was added to a final concentration of 10% (vol/vol.), sodium pyruvate (Biosource International Inc.) was added to 1 mM; L-glutamine (Biosource International Inc.) was added to 2 mM; penicillin (Biosource International Inc.) was added to 100 U/mL; streptomycin (Biosource International Inc.) was added to 100 μg/mL.
100 μL aliquots of cells were placed in the wells of a white-walled, white-bottomed 96-well plate (Corning, Inc. Corning, N.Y.). […] As a negative control, some cell aliquots were incubated without a stimulus (media control). In all cases, the cells were incubated overnight at 37° C. with 5% CO2 and 98% humidity.
After the cells incubated overnight, 100 μL volume of reconstituted LucLight Plus (Packard Instruments, Meriden, Conn.) was added to each aliquot of cells. Each well of the plate was read on a L-max luminometer (Molecular Devices, Sunnyvale, Calif.). The data is expressed as fold increase of luciferase induction in cell aliquots incubated with the indicated stimulant compared to the negative control.
HEK293 cells expressing human TLR7 were prepared as described in Example 1. […] As a negative control, some cell aliquots were incubated without a stimulus (media control).
After the cells incubated overnight, the cells were analyzed as described in Example 1. The data is expressed as fold increase of luciferase induction in cell aliquots incubated with the indicated stimulant compared to the negative control.

Substance | inhibition of smIRM-induced TLR7-mediated biological activity (fold increase of luciferase induction)
poly(A): 18-mer poly(A) oligonucleotide, 5′-AAAAAAAAAAAAAAAAAA-3′ (dA*dA*dA*dA*dA*dA*dA*dA*dA*dA*dA*dA*dA*dA*dA*dA*dA*dA) | inhibition; also recorded: capable of limiting TLR7-mediated biological activity
poly(T): 18-mer poly(T) oligonucleotide, 5′-TTTTTTTTTTTTTTTTTT-3′ | inhibition; also recorded: capable of limiting TLR7-mediated biological activity

— US20110070575A1, “Immunomodulatory Compositions, Combinations and Methods” (Coley Pharmaceutical Group, Inc., priority 2004, published 2011)
